Drawing on patent US20240383904A1, “HETEROCYCLIC COMPOUNDS” (Hoffmann-La Roche Inc., priority 2021, published 2024), this text covers IC50 for 30 molecules.

The target in this assay is T1, MAGL (Homo sapiens, UniProt Q99685).
T1 sequence (Q99685 1-303): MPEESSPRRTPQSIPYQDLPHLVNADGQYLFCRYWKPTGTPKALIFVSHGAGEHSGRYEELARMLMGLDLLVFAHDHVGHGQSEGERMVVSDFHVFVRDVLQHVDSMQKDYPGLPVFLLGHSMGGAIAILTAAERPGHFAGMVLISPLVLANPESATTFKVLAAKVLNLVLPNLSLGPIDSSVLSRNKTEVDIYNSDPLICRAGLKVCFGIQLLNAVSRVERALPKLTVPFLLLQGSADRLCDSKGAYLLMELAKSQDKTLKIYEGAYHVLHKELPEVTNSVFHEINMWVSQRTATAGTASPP
Briefly: 2-AG assay: MAGL inhibitory activity by hydrolysis of 2-arachidonoylglycerol to arachidonic acid, followed by mass spectrometry. The format is biochemical. The following applies: 15 min preincubation, 30 min reaction at RT, 8 μM 2-arachidonoylglycerol.

Broadly, the IC50 is the concentration at which inhibition is half-maximal. Low readings indicate greater potency, high ones weaker potency. In the case of `O=C1COCC2(CN(C(=O)N3CC4(CCN(Cc5cccc(S(=O)(=O)C(F)(F)F)c5)C4)C3)C2)N1` [Example 260, 2-[7-[[3-(trifluoromethylsulfonyl)phenyl]methyl]-2,7-diazaspiro[3.4]octane-2-carbonyl]-8-oxa-2,5-diazaspiro[3.5]nonan-6-one], the IC50 turned out to be 0.0807 µM.

On to `N#Cc1ncc(CC2CC3(C2)CN(C(=O)N2CC4(COC(=O)N4)C2)C3)cc1C(F)(F)F` [Example 261, 5-[[2-(6-oxo-7-oxa-2,5-diazaspiro[3.4]octane-2-carbonyl)-2-azaspiro[3.3]heptan-6-yl]methyl]-3-(trifluoromethyl)pyridine-2-carbonitrile], for which it took 0.00043 µM to reach half-maximal inhibition (IC50).

In turn, `O=C1CCC2(CN(C(=O)N3CC4(CC(Cc5ccc(S(=O)(=O)C(F)(F)F)cn5)C4)C3)C2)N1` [Example 262, 2-[6-[[5-(trifluoromethylsulfonyl)-2-pyridyl]methyl]-2-azaspiro[3.3]heptane-2-carbonyl]-2,5-diazaspiro[3.4]octan-6-one] displayed an IC50 of 0.00106 µM.

Molecule `O=C1CCCC2(CN(C(=O)N3CC4(CC(Cc5ccc(S(=O)(=O)C(F)(F)F)cn5)C4)C3)C2)N1` [Example 263, 2-[6-[[5-(trifluoromethylsulfonyl)-2-pyridyl]methyl]-2-azaspiro[3.3]heptane-2-carbonyl]-2,5-diazaspiro[3.5]nonan-6-one] had an IC50 of 0.183 µM.

In turn, `O=C1COCC2(CN(C(=O)N3CC4(CC(Cc5ccc(S(=O)(=O)C(F)(F)F)cn5)C4)C3)C2)N1` [Example 264, 2-[6-[[5-(trifluoromethylsulfonyl)-2-pyridyl]methyl]-2-azaspiro[3.3]heptane-2-carbonyl]-8-oxa-2,5-diazaspiro[3.5]nonan-6-one] gave an IC50 of 0.00551 µM. Compared with the last molecule, the IC50 is about 33-fold lower.

The molecule `N=S(=O)(c1ccc(CC2CC3(C2)CN(C(=O)N2CC4(CCC(=O)N4)C2)C3)c(F)c1)C(F)(F)F` (stereo not drawn) [Example 265, 2-[6-[[2-fluoro-4-(trifluoromethylsulfoni-midoyl)phenyl]methyl]-2-azaspiro[3.3]heptane-2-carbonyl]-2,5-diazaspiro[3.5]octan-6-one] registered an IC50 of 0.00048 µM.

With `O=C1CCCC2(CN(C(=O)N3CC4(CCN(Cc5cccc(S(=O)(=O)C(F)(F)F)c5)C4)C3)C2)N1` [Example 266, 2-[7-[[3-(trifluoromethylsulfonyl)phenyl]methyl]-2,7-diazaspiro[3.4]octane-2-carbonyl]-2,5-diazaspiro[3.5]nonan-6-one], the 50% inhibitory concentration (IC50) was 1.38 µM.

As to `O=C1CCCC2(CN(C(=O)N3CC4(CN(Cc5ccc(S(=O)(=O)C(F)(F)F)cc5F)C4)C3)C2)N1` [Example 267, 2-[6-[[2-fluoro-4-(trifluoromethylsulfonyl)phenyl]methyl]-2,6-diazaspiro[3.3]heptane-2-carbonyl]-2,5-diazaspiro[3.5]nonan-6-one], half-maximal inhibition (IC50) required 1.24 µM.

In turn, `CS(=O)(=O)c1cc(CC2CC3(C2)CN(C(=O)N2CC4(CCCC(=O)N4)C2)C3)cc(C(F)(F)F)c1` [Example 268, 2-[6-[[3-methylsulfonyl-5-(trifluoromethyl)phenyl]methyl]-2-azaspiro[3.3]heptane-2-carbonyl]-2,5-diazaspiro[3.5]nonan-6-one] registered a half-inhibitory concentration (IC50) of 0.301 µM.

Take `O=C1CCCC2(CN(C(=O)N3CC4(CC(Cc5ccc(S(=O)(=O)C6CC6)cc5)C4)C3)C2)N1` [Example 269, 2-[6-[(4-cyclopropylsulfonylphe-nyl)methyl]-2-azaspiro[3.3]heptane-2-carbonyl]-2,5-diazaspiro[3.5]nonan-6-one]: inhibition was half-maximal at 0.473 µM (IC50).

Consider `N#Cc1ccc(CC2CC3(C2)CN(C(=O)N2CC4(CCCC(=O)N4)C2)C3)cc1C(F)(F)F` [Example 270], for which the IC50 came to 0.0724 µM. Against the preceding molecule, the IC50 is about 6.5-fold lower.

`N#Cc1cc(CC2CC3(C2)CN(C(=O)N2CC4(CCCC(=O)N4)C2)C3)ccc1C(F)(F)F` [Example 271, 5-[[2-(6-oxo-2,5-diazaspiro[3.5]nonane-2-carbonyl)-2-azaspiro[3.3]heptan-6-yl]methyl]-2-(trifluoromethyl)benzoni-trile] showed a 50% inhibitory concentration (IC50) of 0.0316 µM. This IC50 is about 2.3-fold lower than that of the molecule before.

Molecule `N#Cc1cc(CC2CC3(C2)CN(C(=O)N2CC4(CCCC(=O)N4)C2)C3)cnc1C(F)(F)F` [Example 272, 5-[[2-(6-oxo-2,5-diazaspiro[3.5]nonane-2-carbonyl)-2-azaspiro[3.3]heptan-6-yl]methyl]-2-(trifluoromethyl)pyridine-3-carbonitrile] returned a 50% inhibitory concentration (IC50) of 0.795 µM.

Regarding `N#Cc1ccc(CC2CC3(C2)CN(C(=O)N2CC4(CCCC(=O)N4)C2)C3)c(F)c1` [Example 273, 3-fluoro-4-[[2-(6-oxo-2,5-diazaspiro[3.5]nonane-2-carbonyl)-2-azaspiro[3.3]heptan-6-yl]methyl]benzonitrile], the IC50 worked out at 0.0682 µM.

Molecule `O=C1CCCC2(CN(C(=O)N3CC4(CC(Cn5cc(C(F)(F)F)cn5)C4)C3)C2)N1` [Example 274, 2-[6-[[4-(trifluoromethyl)pyrazol-1-yl]methyl]-2-azaspiro[3.3]heptane-2-carbonyl]-2,5-diazaspiro[3.5]nonan-6-one] gave an IC50 of 0.54 µM. Against the preceding molecule, the IC50 is about 7.9-fold higher.

As to `Cn1nc(CC2CC3(C2)CN(C(=O)N2CC4(CCCC(=O)N4)C2)C3)cc1C(F)(F)F` [Example 275, 2-[6-[[1-methyl-5-(trifluoromethyl)pyrazol-3-yl]methyl]-2-azaspiro[3.3]heptane-2-carbonyl]-2,5-diazaspiro[3.5]nonan-6-one], the IC50 is 0.104 µM.

With `Cn1ncc(CC2CC3(C2)CN(C(=O)N2CC4(CCCC(=O)N4)C2)C3)c1C(F)(F)F` [Example 276], the IC50 is 0.0927 µM.

In turn, `Cn1ncc(C(F)(F)F)c1CC1CC2(C1)CN(C(=O)N1CC3(CCCC(=O)N3)C1)C2` [Example 277, 2-[6-[[2-methyl-4-(trifluoromethyl)pyrazol-3-yl]methyl]-2-azaspiro[3.3]heptane-2-carbonyl]-2,5-diazaspiro[3.5]nonan-6-one] yielded an IC50 of 0.195 µM.

Turning to `O=C1CCCC2(CN(C(=O)N3CC4(CC(Cc5cc(C(F)(F)F)n[nH]5)C4)C3)C2)N1` [Example 278, 2-[6-[[3-(trifluoromethyl)-1H-pyrazol-5-y1]methyl]-2-azaspiro[3.3]heptane-2-carbonyl]-2,5-diazaspiro[3.5]nonan-6-one], the IC50 came out at 0.479 µM.

`O=C1CCCC2(CN(C(=O)N3CC4(CC(Cc5cc(C(F)F)n[nH]5)C4)C3)C2)N1` [Example 279, 2-[6-[[3-(difluoromethyl)-1H-pyrazol-5-yl]methyl]-2-azaspiro[3.3]heptane-2-carbonyl]-2,5-diazaspiro[3.5]nonan-6-one] yielded an IC50 of 1.03 µM. Compared with the last molecule, the IC50 is about 2.2-fold higher.

With `O=C1CCC2(CN(C(=O)N3CC4(CC(S(=O)(=O)c5cccc(OC(F)(F)F)c5)C4)C3)C2)N1` [Example 280, 2-[6-[3-(trifluoromethoxy)phenyl]sulfonyl-2-azaspiro[3.3]heptane-2-carbonyl]2,5-diazaspiro[3.4]octan-6-one], the concentration for half-maximal inhibition (IC50) worked out at 0.195 µM.

As for `O=C1CCC2(CN(C(=O)N3CC4(CCC(S(=O)(=O)c5ccc(C(F)(F)F)cc5)CC4)C3)C2)N1` [Example 281, 2-[7-[4-(trifluoromethyl)phenyl]sulfonyl-2-azaspiro[3.5]nonane-2-carbonyl]-2,5-diazaspiro[3.4]octan-6-one], the IC50 was 0.00644 µM.

With `O=C1CCC2(CN(C(=O)N3CC4(CCC(S(=O)(=O)c5cccc(C(F)(F)F)c5)CC4)C3)C2)N1` [Example 282, 2-[7-[3-(trifluoromethyl)phenyl]sulfonyl-2-azaspiro[3.5]nonane-2-carbonyl]-2,5-diazaspiro[3.4]octan-6-one], the IC50 worked out at 0.0372 µM.

On to `N=[S@](=O)(c1ccc(CC2CC3(C2)CN(C(=O)N2CC4(CCC(=O)N4)C2)C3)cc1)C(F)(F)F` [Example 283, 2-[6-[[4-(trifluoromethylsulfoni-midoyl)phenyl]methyl]-2-azaspiro[3.3]heptane-2-carbonyl]-2,5-diazaspiro[3.4]octan-6-one], for which inhibition was half-maximal at 0.00062 µM (IC50).

Turning to `N=[S@](=O)(c1ccc(CC2CC3(C2)CN(C(=O)N2CC4(COCC(=O)N4)C2)C3)cc1)C(F)(F)F` [Example 285, 2-[6-[[4-(trifluoromethylsulfoni-midoyl)phenyl]methyl]-2-azaspiro[3.3]heptane-2-carbonyl]-8-oxa-2,5-diazaspiro[3.5]nonan-6-one], half-maximal inhibition (IC50) required 0.00495 µM.

The molecule `N=[S@@](=O)(c1ccc(CC2CC3(C2)CN(C(=O)N2CC4(CCC(=O)N4)C2)C3)cc1)C(F)(F)F` [Example 286, 2-[6-[[4-(trifluoromethylsulfoni-midoyl)phenyl]methyl]-2-azaspiro[3.3]heptane-2-carbonyl]-2,5-diazaspiro[3.4]octan-6-one] displayed an IC50 of 0.00289 µM. Compared with the last molecule, the IC50 is about 1.7-fold lower.

On to `N=[S@@](=O)(c1ccc(CC2CC3(C2)CN(C(=O)N2CC4(COCC(=O)N4)C2)C3)cc1)C(F)(F)F` [Example 288, 2-[6-[[4-(trifluoromethylsulfoni-midoyl)phenyl]methyl]-2-azaspiro[3.3]heptane-2-carbonyl]-8-oxa-2,5-diazaspiro[3.5]nonan-6-one], for which the IC50 is 0.00891 µM. This IC50 lies about 3.1-fold higher than the previous one.

The molecule `N=[S@@](=O)(c1cccc(CC2CC3(C2)CN(C(=O)N2CC4(CCC(=O)N4)C2)C3)c1)C(F)(F)F` [Example 289, 2-[6-[[3-(trifluoromethylsulfoni-midoyl)phenyl]methyl]-2-azaspiro[3.3]heptane-2-carbonyl]-2,5-diazaspiro[3.4]octan-6-one] gave an IC50 of 0.00044 µM.

In turn, `N=[S@@](=O)(c1cccc(CC2CC3(C2)CN(C(=O)N2CC4(CCCC(=O)N4)C2)C3)c1)C(F)(F)F` [Example 290, 2-[6-[[3-(trifluoromethylsulfoni-midoyl)phenyl]methyl]-2-azaspiro[3.3]heptane-2-carbonyl]-2,5-diazaspiro[3.5]nonan-6-one] displayed an IC50 of 0.0456 µM.

`N=[S@@](=O)(c1cccc(CC2CC3(C2)CN(C(=O)N2CC4(COCC(=O)N4)C2)C3)c1)C(F)(F)F` [Example 291, 2-[6-[[3-(trifluoromethylsulfoni-midoyl)phenyl]methyl]-2-azaspiro[3.3]heptane-2-carbonyl]-8-oxa-2,5-diazaspiro[3.5]nonan-6-one] came in with an IC50 of 0.00127 µM. This IC50 lies about 36-fold lower than the previous one.
